# Read-outs that look alike come from different tables or passages of the source.
# How the values were obtained:
# [1] = Safety and tolerability of single dose (Example 1); type: in vivo, human; settings: single oral dose 1-50 mg
# Source text: Safety and tolerability of VB-201 was judged by evaluating the incidence of abnormal findings in the following measurements: vital signs: systolic and diastolic blood pressure, heart rate, respiratory rate, body temperature; physical examination; 12-lead electrocardiogram; laboratory tests of blood samples for: complete blood count, prothrombin time/partial thromboplastin time, LDL- and HDL-cholesterol, total cholesterol, triglycerides, glucose, blood urea nitrogen, sodium, potassium, creatinine, calcium, phosphorus, creatinine phosphokinase, lactate dehydrogenase, aspartate transaminase, alanine transaminase, γ-glutamyl transferase, alkaline phosphatase, protein, albumin, total bilirubin, total IgM and IgG antibodies, interleukin-12/23 p40, tumor necrosis factor-α, and interleukin-6, as well as routine urinalysis; and all adverse events, whether or not considered serious, and whether or not considered related to the investigational agent, according to the criteria for Good Clinical Practice. Treatment-emergent adverse events were defined as any adverse event that started on or after administration of the first dose of VB-201, and no more than 30 days after administration of the last dose, or are ongoing at the time of the first dose and worsened in severity or frequency during treatment. […] All subjects were healthy male volunteers. Five cohorts of six subjects each received a single dose of 1, 3, 10, 30 or 50 mg VB-201. 10 subjects received a placebo. The VB-201 was formulated in gelatin capsules enterocoated with Eudragit®.
# [2] = Repeated daily dose pharmacokinetics of VB-201 in plasma, 14 days (Example 2); type: in vivo, human; settings: for T1/2 (rec. ph.): recovery phase after Day 14
# Protocol: Determination of VB-201 concentrations in plasma was performed using an HPLC-MS/MS (high performance liquid chromatography with tandem mass spectrometric detection) assay. Calibration was for a range of from 5 to 500 ng/ml for low doses and from 50 to 5000 ng/ml for high doses. Pharmacokinetic parameters were estimated by using a non-compartmental method, except for the AUC (area under curve), which was determined using a (log-) trapezoidal rule as the area above the previous trough level. […] The subjects were all healthy volunteers. […] 10 subjects received a placebo. The VB-201 was formulated in gelatin capsules enterocoated with Opadry AMB and Acryleze White. The 20 mg dose was originally in the form of 20 mg capsules. […] Pharmacokinetic blood samples for VB-201 determination were collected on Day 0 and Day 14, prior to dosing and 2, 4, 6, 8, 10, 12, 16 and 24 hours after dosing. […] Pharmacokinetic samples were also collected on Day 12 and Day 13, before dosing. Concentration-time curves were constructed for a time period of 24 hours on each of days 1 and 14. In addition, urine samples from the subjects receiving 30 mg VB-201 were assayed for VB-201 by high performance liquid chromatography-tandem mass spectrometry. […] The limit of detection was 1 ng/ml.
# interferon-γ (IFN-γ) = tested on: interferon-γ (IFN-γ)
# Protocol: Plasma levels of interleukin-23 (IL-23) and interferon-γ (IFN-γ) were determined using the FlowCytomix human simplex kits (Bender Medsystems) for the aforementioned cytokines according to the manufacturer instructions. Acquisition of samples was performed using FacsCalibur (Becton Dickinson). Results were analyzed with the FlowCytomix Pro 2.2 Software.
# Healthy subjects were treated once a day with 40 mg or 80 mg of VB-201, according to the procedures described in Example 4. Plasma was collected on day 0 (pre-dosing), on day 14 after dosing, and on day 28 after dosing (when administration lasted 28 days). Plasma levels of interleukin-23 (IL-23) and interferon-γ (IFN-γ) were determined as described hereinabove.
compound,measurement,setting,value
"CCCCCCCCCCCCCCCCOCC(COP(=O)([O-])OCC[N+](C)(C)C)OCCCCC(=O)O (stereo not shown) [VB-201, 1-hexadecyl-2-(4′-carboxybutyl)-glycerol-3-phosphocholine]",electrocardiogram findings,[1],None of the subjects which received VB-201 had clinically significant electrocardiogram findings
same,safety profile,[1],comparable safety profile of VB-201 to a placebo
same,serious adverse events,[1],No serious adverse events occurred
same,"multi-day accumulation relative to a single dose, estimated from elimination data",[2]; continued once per day dosing,approximately 4 times
same,AUC(0-24),"[2]; daily 5 mg, Day 1",1731 ng·h/mL
same,AUC(0-infinity),"[2]; daily 5 mg, Day 1",6005 ng·h/mL
same,AUMC (0-24),"[2]; daily 5 mg, Day 1",23670 hours^2*ng/ml
same,AUMC (0-infinity),"[2]; daily 5 mg, Day 1",341432 hours^2*ng/ml
same,Cl/F (0-24),"[2]; daily 5 mg, Day 1",3.92 L/h
same,Cmax,"[2]; daily 5 mg, Day 1",117.34 ng/mL
same,Kc,"[2]; daily 5 mg, Day 1",0.0250 h⁻¹
same,MTT,"[2]; daily 5 mg, Day 1",14.51 h
same,T1/2,"[2]; daily 5 mg, Day 1",32.18 h
same,Tmax,"[2]; daily 5 mg, Day 1",10 h
same,AUC(0-24),"[2]; daily 5 mg, Day 14",6238 ng·h/mL
same,AUC(0-infinity),"[2]; daily 5 mg, Day 14",15913 ng·h/mL
same,AUMC (0-24),"[2]; daily 5 mg, Day 14",71173 hours^2*ng/ml
same,AUMC (0-infinity),"[2]; daily 5 mg, Day 14",821875 hours^2*ng/ml
same,Accum. (accumulation),"[2]; daily 5 mg, Day 14",4.75
same,Cl/F (0-24),"[2]; daily 5 mg, Day 14",0.90 L/h
same,Cmax,"[2]; daily 5 mg, Day 14",340.31 ng/mL
same,Kc,"[2]; daily 5 mg, Day 14",0.0278 h⁻¹
same,MTT,"[2]; daily 5 mg, Day 14",11.41 h
same,T1/2,"[2]; daily 5 mg, Day 14",30.95 h
same,Tmax,"[2]; daily 5 mg, Day 14",9.67 h
same,T1/2 (rec. ph.),[2]; daily 5 mg,44.17 h
same,AUC(0-24),"[2]; daily 10 mg, Day 1",3494 ng·h/mL
same,AUC(0-infinity),"[2]; daily 10 mg, Day 1",9912 ng·h/mL
same,AUMC (0-24),"[2]; daily 10 mg, Day 1",45924 hours^2*ng/ml
same,AUMC (0-infinity),"[2]; daily 10 mg, Day 1",440602 hours^2*ng/ml
same,Cl/F (0-24),"[2]; daily 10 mg, Day 1",4.92 L/h
same,Cmax,"[2]; daily 10 mg, Day 1",227.92 ng/mL
same,Kc,"[2]; daily 10 mg, Day 1",0.0285 h⁻¹
same,MTT,"[2]; daily 10 mg, Day 1",14.44 h
same,T1/2,"[2]; daily 10 mg, Day 1",27.09 h
same,Tmax,"[2]; daily 10 mg, Day 1",11.33 h
same,AUC(0-24),"[2]; daily 10 mg, Day 14",12617 ng·h/mL
same,AUC(0-infinity),"[2]; daily 10 mg, Day 14",36183 ng·h/mL
same,AUMC (0-24),"[2]; daily 10 mg, Day 14",148375 hours^2*ng/ml
same,AUMC (0-infinity),"[2]; daily 10 mg, Day 14",2596242 hours^2*ng/ml
same,Accum. (accumulation),"[2]; daily 10 mg, Day 14",5.06
same,Cl/F (0-24),"[2]; daily 10 mg, Day 14",0.87 L/h
same,Cmax,"[2]; daily 10 mg, Day 14",665.80 ng/mL
same,Kc,"[2]; daily 10 mg, Day 14",0.0267 h⁻¹
same,MTT,"[2]; daily 10 mg, Day 14",11.72 h
same,T1/2,"[2]; daily 10 mg, Day 14",34.27 h
same,Tmax,"[2]; daily 10 mg, Day 14",11 h
same,T1/2 (rec. ph.),[2]; daily 10 mg,35.77 h
same,AUC(0-24),"[2]; daily 20 mg, Day 1",4186 ng·h/mL
same,AUC(0-infinity),"[2]; daily 20 mg, Day 1",12721 ng·h/mL
same,AUMC (0-24),"[2]; daily 20 mg, Day 1",58323 hours^2*ng/ml
same,AUMC (0-infinity),"[2]; daily 20 mg, Day 1",752013 hours^2*ng/ml
same,Cl/F (0-24),"[2]; daily 20 mg, Day 1",5.21 L/h
same,Cmax,"[2]; daily 20 mg, Day 1",294.23 ng/mL
same,Kc,"[2]; daily 20 mg, Day 1",0.0307 h⁻¹
same,MTT,"[2]; daily 20 mg, Day 1",14.04 h
same,T1/2,"[2]; daily 20 mg, Day 1",30.91 h
same,Tmax,"[2]; daily 20 mg, Day 1",12.33 h
same,AUC(0-24),"[2]; daily 20 mg, Day 14",20553 ng·h/mL
same,AUC(0-infinity),"[2]; daily 20 mg, Day 14",47828 ng·h/mL
same,AUMC (0-24),"[2]; daily 20 mg, Day 14",229287 hours^2*ng/ml
same,AUMC (0-infinity),"[2]; daily 20 mg, Day 14",2070644 hours^2*ng/ml
same,Accum. (accumulation),"[2]; daily 20 mg, Day 14",4.90
same,Cl/F (0-24),"[2]; daily 20 mg, Day 14",1.46 L/h
same,Cmax,"[2]; daily 20 mg, Day 14",1275.65 ng/mL
same,Kc,"[2]; daily 20 mg, Day 14",0.0338 h⁻¹
same,MTT,"[2]; daily 20 mg, Day 14",11.16 h
same,T1/2,"[2]; daily 20 mg, Day 14",25.09 h
same,Tmax,"[2]; daily 20 mg, Day 14",7.33 h
same,T1/2 (rec. ph.),[2]; daily 20 mg,30.89 h
same,AUC(0-24),"[2]; daily 30 mg, Day 1",6409 ng·h/mL
same,AUC(0-infinity),"[2]; daily 30 mg, Day 1",67386 ng·h/mL
same,AUMC (0-24),"[2]; daily 30 mg, Day 1",92749 hours^2*ng/ml
same,AUMC (0-infinity),"[2]; daily 30 mg, Day 1",11648110 hours^2*ng/ml
same,Cl/F (0-24),"[2]; daily 30 mg, Day 1",8.55 L/h
same,Cmax,"[2]; daily 30 mg, Day 1",416.58 ng/mL
same,Kc,"[2]; daily 30 mg, Day 1",0.0220 h⁻¹
same,MTT,"[2]; daily 30 mg, Day 1",14.73 h
same,T1/2,"[2]; daily 30 mg, Day 1",72.30 h
same,Tmax,"[2]; daily 30 mg, Day 1",19 h
same,AUC(0-24),"[2]; daily 30 mg, Day 14",30555 ng·h/mL
same,AUC(0-infinity),"[2]; daily 30 mg, Day 14",64120 ng·h/mL
same,AUMC (0-24),"[2]; daily 30 mg, Day 14",358861 hours^2*ng/ml
same,AUMC (0-infinity),"[2]; daily 30 mg, Day 14",2456341 hours^2*ng/ml
same,Accum. (accumulation),"[2]; daily 30 mg, Day 14",7.07
same,Cl/F (0-24),"[2]; daily 30 mg, Day 14",1.09 L/h
same,Cmax,"[2]; daily 30 mg, Day 14",1821.40 ng/mL
same,Kc,"[2]; daily 30 mg, Day 14",0.0333 h⁻¹
same,MTT,"[2]; daily 30 mg, Day 14",11.78 h
same,T1/2,"[2]; daily 30 mg, Day 14",23.64 h
same,Tmax,"[2]; daily 30 mg, Day 14",10 h
same,T1/2 (rec. ph.),[2]; daily 30 mg,32.78 h
same,VB-201 in urine samples,"[2]; daily 30 mg, HPLC-MS/MS, limit of detection 1 ng/ml",No traces of VB-201 could be detected
same,induction or inhibition of metabolism,[2]; daily 5-30 mg,does not show significant induction or inhibition of metabolism
same,average accumulation rate,"[2]; daily 5-30 mg, Day 14",approximately 5
same,IFN-γ plasma levels,"interferon-γ (IFN-γ); 40 mg per day, 14 days, one subject (second had no detectable levels)",considerably reduced
same,IFN-γ plasma levels,"interferon-γ (IFN-γ); 80 mg per day, 28 days, two subjects (third had no detectable levels)",considerably reduced
